Measurements reported in PubChem BioAssay AID248 (DTP/NCI, 2004).
Where “and” joins values, the source holds several entries; their conditions need not be identical. Identical values can stand only once. Toxic doses and inconclusive results are not listed. Cut-off read from the data, not from the text of the source: active = T/C of 150% or more; inactive = T/C below 125%.

Tested on: L1210 leukemia ip in BDF1 mice, survival T/C
Assay: NCI In Vivo Anticancer Drug Screen. Data for tumor model L1210 Leukemia (intraperitoneal) in B6D2F1 (BDF1) mice
Conditions: endpoint: mean survival time, higher = longer survival
Outline: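 Each compound was tested against a transplantable tumor grown in mice. The endpoint was survival, with treated animals benchmarked against vehicle controls as a simple ratio.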

[1] = dose: 100.0 mg/kg/injection, schedule: Q01DX009 (ip), vehicle: Klucel (hydroxypropylcellulose) (HPC)
[2] = dose: 100.0 mg/kg/injection, schedule: Q04DX003 (ip), vehicle: Klucel (hydroxypropylcellulose) (HPC)
[3] = dose: 200.0 mg/kg/injection, schedule: Q01DX009 (ip), vehicle: Klucel (hydroxypropylcellulose) (HPC)
[4] = dose: 200.0 mg/kg/injection, schedule: Q04DX003 (ip), vehicle: Klucel (hydroxypropylcellulose) (HPC)
[5] = dose: 400.0 mg/kg/injection, schedule: Q01DX009 (ip), vehicle: Klucel (hydroxypropylcellulose) (HPC)
[6] = dose: 400.0 mg/kg/injection, schedule: Q04DX003 (ip), vehicle: Klucel (hydroxypropylcellulose) (HPC)
[7] = dose: 75.0 mg/kg/injection, schedule: Q01DX001 (ip), vehicle: saline
[8] = dose: 150.0 mg/kg/injection, schedule: Q01DX001 (ip), vehicle: saline
[9] = dose: 100.0 mg/kg/injection, schedule: Q04DX002 (ip), vehicle: saline with Tween-80
[10] = dose: 200.0 mg/kg/injection, schedule: Q04DX002 (ip), vehicle: saline with Tween-80
[11] = dose: 100.0 mg/kg/injection, schedule: Q01DX001 (ip), vehicle: saline
[12] = dose: 200.0 mg/kg/injection, schedule: Q01DX001 (ip), vehicle: saline
[13] = dose: 50.0 mg/kg/injection, schedule: Q01DX009 (ip), vehicle: saline
[14] = dose: 100.0 mg/kg/injection, schedule: Q04DX003 (ip), vehicle: saline
[15] = dose: 200.0 mg/kg/injection, schedule: Q04DX003 (ip), vehicle: saline
[16] = dose: 400.0 mg/kg/injection, schedule: Q04DX003 (ip), vehicle: saline

Measured: T/C

COc1ccc(OC)c(NC(=O)Nc2ccc(F)cc2)c1
inactive: dose: 12.5 mg/kg/injection, schedule: Q01DX001 (ip), vehicle: carboxymethylcellulose (CMC) 98 % of control | dose: 12.5 mg/kg/injection, schedule: Q01DX009 (ip), vehicle: carboxymethylcellulose (CMC) 92 % of control and 94 % of control | dose: 12.5 mg/kg/injection, schedule: Q04DX002 (ip), vehicle: carboxymethylcellulose (CMC) 110 % of control | dose: 12.5 mg/kg/injection, schedule: Q04DX003 (ip), vehicle: carboxymethylcellulose (CMC) 95 % of control | dose: 25.0 mg/kg/injection, schedule: Q01DX001 (ip), vehicle: carboxymethylcellulose (CMC) 103 % of control | dose: 25.0 mg/kg/injection, schedule: Q01DX009 (ip), vehicle: carboxymethylcellulose (CMC) 95 % of control and 99 % of control | dose: 25.0 mg/kg/injection, schedule: Q04DX002 (ip), vehicle: carboxymethylcellulose (CMC) 98 % of control and 100 % of control | dose: 25.0 mg/kg/injection, schedule: Q04DX003 (ip), vehicle: carboxymethylcellulose (CMC) 91 % of control | dose: 50.0 mg/kg/injection, schedule: Q01DX001 (ip), vehicle: carboxymethylcellulose (CMC) 95 % of control | dose: 50.0 mg/kg/injection, schedule: Q01DX009 (ip), vehicle: carboxymethylcellulose (CMC) 92 % of control and 89 % of control | dose: 50.0 mg/kg/injection, schedule: Q04DX002 (ip), vehicle: carboxymethylcellulose (CMC) 97 % of control | dose: 50.0 mg/kg/injection, schedule: Q04DX003 (ip), vehicle: carboxymethylcellulose (CMC) 93 % of control

N#CC(C#N)=Cc1ccc(Cl)c(Cl)c1
inactive: dose: 50.0 mg/kg/injection, schedule: Q01DX001 (ip), vehicle: other 102 % of control | dose: 100.0 mg/kg/injection, schedule: Q01DX001 (ip), vehicle: other 107 % of control | [1] 92 % of control | [2] 96 % of control | dose: 200.0 mg/kg/injection, schedule: Q01DX001 (ip), vehicle: other 107 % of control | [3] 93 % of control | [4] 102 % of control | [5] 86 % of control | [6] 95 % of control

CCN(CC)C(=S)SCc1ccccc1OC(=O)NC
inactive: [7] 101 % of control | [8] 98 % of control

Nc1c(F)c(F)c(N)c(F)c1F
inactive: dose: 100.0 mg/kg/injection, schedule: Q01DX001 (ip), vehicle: acetone 93 % of control | dose: 400.0 mg/kg/injection, schedule: Q01DX001 (ip), vehicle: acetone 89 % of control

O=C(Nc1cc([N+](=O)[O-])ccc1F)Oc1ccccc1F
inactive: [2] 102 % of control | [4] 94 % of control | [6] 98 % of control

Cc1ccnc(NS(=O)(=O)c2ccc(N=NC3SC(=S)NC3=O)cc2)n1 (centres undefined)
inactive: [7] 100 % of control | [8] 101 % of control | dose: 300.0 mg/kg/injection, schedule: Q01DX001 (ip), vehicle: saline 98 % of control

CC(C)C1CCC(N)CC1 (centres undefined)
inactive: [7] 100 % of control

Cc1cccc(N=Cc2ccc(Cl)cc2Cl)c1C
inactive: dose: 100.0 mg/kg/injection, schedule: Q01DX009 (ip), vehicle: alcohol 95 % of control | [9] 106 % of control | dose: 200.0 mg/kg/injection, schedule: Q01DX009 (ip), vehicle: alcohol 87 % of control | [10] 102 % of control | dose: 400.0 mg/kg/injection, schedule: Q04DX002 (ip), vehicle: saline with Tween-80 98 % of control

Cn1ncc2c(NCc3ccccc3)ncnc21
inactive: [11] 97 % of control | [12] 110 % of control

O=C(O)C(CCl)(CCl)CCl
inactive: [13] 106 % of control | dose: 100.0 mg/kg/injection, schedule: Q01DX009 (ip), vehicle: saline 98 % of control | dose: 200.0 mg/kg/injection, schedule: Q01DX009 (ip), vehicle: saline 95 % of control

C[n+]1cccc2cccc(N)c21
inactive: dose: 10.0 mg/kg/injection, schedule: Q01DX001 (ip), vehicle: other 105 % of control | dose: 20.0 mg/kg/injection, schedule: Q01DX001 (ip), vehicle: other 115 % of control | dose: 40.0 mg/kg/injection, schedule: Q01DX001 (ip), vehicle: other 105 % of control

NC(=S)N/N=C1/CCc2ccccc21
inactive: dose: 100.0 mg/kg/injection, schedule: Q01DX001 (ip), vehicle: carboxymethylcellulose (CMC) 113 % of control

CCOP(=O)(OCC)Oc1ccccc1
inactive: [14] 91 % of control | [15] 92 % of control | [16] 94 % of control

OCC(O)C(O)C(OC1OC(CO)C(O)C(O)C1O)C(O)CO (centres undefined)
inactive: dose: 100.0 mg/kg/injection, schedule: Q01DX001 (ip), vehicle: Klucel (hydroxypropylcellulose) (HPC) 99 % of control | dose: 200.0 mg/kg/injection, schedule: Q01DX001 (ip), vehicle: Klucel (hydroxypropylcellulose) (HPC) 89 % of control | dose: 400.0 mg/kg/injection, schedule: Q01DX001 (ip), vehicle: Klucel (hydroxypropylcellulose) (HPC) 99 % of control

CCCCNC(=O)NNC(=O)OCC
inactive: [14] 100 % of control | [15] 100 % of control | [16] 100 % of control

COc1ccc(CCNC(=S)NC(=O)c2ccc(Cl)c(Cl)c2)cc1OC
inactive: [1] 91 % of control | [3] 86 % of control | [5] 93 % of control

OCC#CC(O)c1ccccc1 (centres undefined)
inactive: dose: 12.5 mg/kg/injection, schedule: Q01DX001 (ip), vehicle: acetone 94 % of control | dose: 12.5 mg/kg/injection, schedule: Q01DX009 (ip), vehicle: saline 94 % of control | dose: 12.5 mg/kg/injection, schedule: Q04DX003 (ip), vehicle: acetone 97 % of control | dose: 12.5 mg/kg/injection, schedule: Q04DX003 (ip), vehicle: saline 96 % of control | dose: 25.0 mg/kg/injection, schedule: Q01DX001 (ip), vehicle: acetone 97 % of control | dose: 25.0 mg/kg/injection, schedule: Q01DX009 (ip), vehicle: saline 92 % of control | dose: 25.0 mg/kg/injection, schedule: Q04DX003 (ip), vehicle: saline 96 % of control | dose: 50.0 mg/kg/injection, schedule: Q01DX001 (ip), vehicle: acetone 92 % of control | [13] 95 % of control | dose: 50.0 mg/kg/injection, schedule: Q04DX003 (ip), vehicle: acetone 95 % of control | dose: 50.0 mg/kg/injection, schedule: Q04DX003 (ip), vehicle: saline 95 % of control | dose: 75.0 mg/kg/injection, schedule: Q01DX009 (ip), vehicle: saline 98 % of control | dose: 115.0 mg/kg/injection, schedule: Q01DX009 (ip), vehicle: saline 107 % of control

NOCc1csc(N)n1
inactive: [11] 101 % of control | [12] 95 % of control | dose: 400.0 mg/kg/injection, schedule: Q01DX001 (ip), vehicle: saline 104 % of control

O=CNC(Cc1ccc(O)cc1)C(=O)O (centres undefined)
inactive: [14] 95 % of control | [15] 91 % of control | [16] 93 % of control

CC(=O)Nc1ccc(S(=O)(=O)c2ccc(N)cc2)cc1
inactive: dose: 12.5 mg/kg/injection, schedule: Q04DX002 (ip), vehicle: saline with Tween-80 105 % of control | dose: 25.0 mg/kg/injection, schedule: Q04DX002 (ip), vehicle: saline with Tween-80 109 % of control and 90 % of control | dose: 50.0 mg/kg/injection, schedule: Q04DX002 (ip), vehicle: saline with Tween-80 97 % of control | [9] 97 % of control and 102 % of control | [10] 109 % of control

CN1C(=O)CN=C(c2ccccn2)c2cc(Cl)ccc21
inactive: dose: 100.0 mg/kg/injection, schedule: Q01DX001 (ip), vehicle: saline sonified 112 % of control | dose: 200.0 mg/kg/injection, schedule: Q01DX001 (ip), vehicle: saline sonified 96 % of control | dose: 400.0 mg/kg/injection, schedule: Q01DX001 (ip), vehicle: saline sonified 103 % of control

Cc1ccc(NP(=O)(Oc2c(F)c(F)c(F)c(F)c2F)N(CCCl)CCCl)cc1 (centres undefined)
inactive: dose: 62.5 mg/kg/injection, schedule: Q01DX001 (ip), vehicle: other 100 % of control | dose: 125.0 mg/kg/injection, schedule: Q01DX001 (ip), vehicle: other 112 % of control | dose: 250.0 mg/kg/injection, schedule: Q01DX001 (ip), vehicle: other 106 % of control | dose: 500.0 mg/kg/injection, schedule: Q01DX001 (ip), vehicle: other 108 % of control
